Measurements as given in patent US6653455B1, “Crystallization of doxorubicin hydrochloride” (Mercian Corporation, priority 1998, dated 2003).
Counter-ions that a name gives are not always drawn.

What was measured:
Type in all cases: physicochemical
[1] = Solubility test (dissolving time in water); conditions: 50 mg sample in 5 ml water, 25° C., about 600 rounds/minute stirring, time until completely dissolved; hydrochloride
Experimental: A beaker of 20 ml (minor diameter: 30 mm) was charged with 5 ml of water and then 50 mg of a DOX.HCl crystal sample, and the sample was stirred at 25° C. and about 600 rounds/minute by means of a magnetic stirrer (diameter 6 mm×length 10 mm). Time consumed until the sample was completely dissolved was measured wile observing the dissolving state every 30 seconds with naked eyes.
The solubility test described above was carried out for a DXR.USP standard product (Lot J) (average particle diameter: 28 μm) as comparison and Examples 2, 46,51, 55, 56, 57 and 58, and the results thereof are shown in Table III.

[2] = Hygroscopicity, cup method (weight change); conditions: weight-increasing rate, 25° C., 50 to 60% RH, 15 minutes; crystals dried at 40° C. under vacuum; hydrochloride
Experimental: Determined by the following cup method. To be specific, about 15 to 20 mg of the sample was put in a cylindrical cup having a diameter of 6 mm and a depth of 6 mm and left standing at a fixed temperature (25° C.) and relative humidity (50 to 60% RH) for 15 minutes to measure a weight change, whereby the hygroscopicity was evaluated.
In the following respective examples, a weight-increasing rate of 0.40% or more is shown by an evaluation criterion that the hygroscopicity is large (−); a weight-increasing rate of 0.20% or more and less than 0.40% is shown by an evaluation criterion that the hygroscopicity is ;intermediate (±); and a weight-increasing rate of less than 0.20% is shown by an evaluation criterion that the hygroscopicity is small: (+).

[3] = Average particle diameter, microscopic method (Heywood circle-corresponding diameter); conditions: 10 typical crystals on photograph, hydrochloride
Description: The average particle diameter is shown by a diameter of a circle having the same area as an injected area of the particle, a so-called Heywood diameter (circle-corresponding diameter) according to a microscopic method (injected image). A small amount of the crystals was put on a slide glass, and 1 to 2 drops of a hydrophilic surfactant (sesquioleic acid sorbitan) were fallen thereon to disperse them. It was photographed by means of a polarization microscope (photographing lens: 3.3 magnifications, objective lens: 20 magnifications) equipped with a photographing device. Optional 10 pieces of the typical crystals were selected on the photograph to measure a long diameter and a short diameter thereof An (projected) area of the particle was shown by long diameter×short diameter, and the particle diameter was shown by a diameter of a circle having the same area as that obtained above.

| Structure (SMILES) | Dissolving time [1] [min] | Hygroscopicity [2] | Average particle diameter [3] [μm] |
| --- | --- | --- | --- |
| COc1cccc2c1C(=O)c1c(O)c3c(c(O)c1C2=O)C[C@@](O)(C(=O)CO)C[C@@H]3O[C@H]1C[C@H](N)[C@H](O)[C@H](C)O1 [Example 46, doxorubicin hydrochloride] | 1.5 to 2 | + (a weight-increasing rate of less than 0.20% is shown by an evaluation criterion that the hygroscopicity is small: (+)) | 86 |
| COc1cccc2c1C(=O)c1c(O)c3c(c(O)c1C2=O)C[C@@](O)(C(=O)CO)C[C@@H]3O[C@H]1C[C@H](N)[C@H](O)[C@H](C)O1 [Example 51, doxorubicin hydrochloride] | 1.5 to 2 | + (a weight-increasing rate of less than 0.20% is shown by an evaluation criterion that the hygroscopicity is small: (+)) | 73 |
| COc1cccc2c1C(=O)c1c(O)c3c(c(O)c1C2=O)C[C@@](O)(C(=O)CO)C[C@@H]3O[C@H]1C[C@H](N)[C@H](O)[C@H](C)O1 [Example 55, doxorubicin hydrochloride] | 1.5 to 2 | + (a weight-increasing rate of less than 0.20% is shown by an evaluation criterion that the hygroscopicity is small: (+)) | 24 |
| COc1cccc2c1C(=O)c1c(O)c3c(c(O)c1C2=O)C[C@@](O)(C(=O)CO)C[C@@H]3O[C@H]1C[C@H](N)[C@H](O)[C@H](C)O1 [Example 56, doxorubicin hydrochloride] | 1.5 to 2 | + (a weight-increasing rate of less than 0.20% is shown by an evaluation criterion that the hygroscopicity is small: (+)) | 37 |
| COc1cccc2c1C(=O)c1c(O)c3c(c(O)c1C2=O)C[C@@](O)(C(=O)CO)C[C@@H]3O[C@H]1C[C@H](N)[C@H](O)[C@H](C)O1 [Example 57, doxorubicin hydrochloride] | 1.5 to 2 | ± (a weight-increasing rate of 0.20% or more and less than 0.40% is shown by an evaluation criterion that the hygroscopicity is ;intermediate (±)) | 35 |
| COc1cccc2c1C(=O)c1c(O)c3c(c(O)c1C2=O)C[C@@](O)(C(=O)CO)C[C@@H]3O[C@H]1C[C@H](N)[C@H](O)[C@H](C)O1 [Example 58, doxorubicin hydrochloride] | 14.5 to 15 | − (a weight-increasing rate of 0.40% or more is shown by an evaluation criterion that the hygroscopicity is large (−)) | <4 |
